These are literature values, as cited in US20210324434A1, “METHOD FOR PRODUCING RARE SUGAR-CONTAINING COMPOSITION AND RARE SUGAR-CONTAINING COMPOSITION” (NATIONAL UNIVERSITY CORPORATION KAGAWA UNIVERSITY, priority 2018, published 2021).

For data set [1] the following is noted: relative to sugar.
The conditions of data set [2]: already known.

SMILES strings stand for the structures.

Turning to `O=C[C@H](O)[C@@H](O)[C@H](O)[C@H](O)CO` [D-glucose], the “sweetness intensity, % of that of sugar” value in data set [1] is recorded as “about 70%”. As for `O=C(CO)[C@@H](O)[C@H](O)[C@H](O)CO` [D-fructose], in data set [1], the “sweetness intensity, % of that of sugar” value was “about 170%”.

`O=C(CO)[C@H](O)[C@H](O)[C@H](O)CO` [D-psicose]: the “sweetness intensity, % of that of sugar” value in data set [1] is on record as “about 70%”. In addition, in data set [2], the “result of an acute oral toxicity test” value is recorded as ≥ 5,000 mg/kg.
